“And” between values parts separate entries of the source, which are not always exact repeats. Equal values may be shown once.
What was measured:
EGFR L858R [1] = target: T1, EGFR L858R (Homo sapiens, UniProt P00533, L858R); assay: Fluorescence turn-on response / titration of HX103 with recombinant EGFR;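 for Fluorescence intensity at 570 nm: 100% is HX103 fluorescence with wild-type EGFR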;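 for all read-outs here: fluorescence of the probe measured with recombinant EGFR L858R in PBS carrying 0.1% DMSO, excitation at 440 nm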; format: binding; details: for Fluorescence intensity, L858R: Fig. 2c; for Fluorescence response of HX103 to EGFR L858R: Supplementary Fig. 2f
T1 construct: EGFR L858R (amino acids 668–1210, #PR7447A); purchased Thermo Fisher PR7447A
Protocol: (d) Fluorescence spectra change of HX103 (5 µ M) with increasing concentration of EGFR L858R
(e) Fluorescence spectra change of HX103 (5 µ M ) with
increasing concentration of EGFR 19del (0 to 6 µM) in PBS buffer. (f) Titration curve of HX103
(5 µM) with increasing concentration of EGFRs (0 to 6 µM). The apparent binding affinity (Kd)
The fluorescence titration curve was fitted on one -
site specific binding model. I and I0 represent the intensities of HX103 at 570 nm in the presence
and absence of protein. Data represent average val ues ± SD, n = 3 independent experiments per
dissolved in dimethyl sulfoxide (DMSO) to obtain stock solutions (10 mM). The prepared stock
solution was diluted in sodium phosphate buffer (PBS, 1 M, pH=7.4) to obtain the desired final
concentration solution, containing 0.1% (v/v) DMSO as a cosolvent.
and emission fluorescence spectra of the solution before/after addition o f different concentration
Data analysis：The obtained fluorescence intensity at 570 nm (Excitation wavelength was 440
nm) in each sample was normalized by using the fluorescence intensity of HX103 in the presence
of EGFR. Specifically, the fluorescence intensity of HX103 in the presence of EGFR wild-type
was set at 100% to normalized that of the remaining samples.

EGFR L858R [2] = target: T1, EGFR L858R; assay: Kinase inhibition assay (fluorescent mobility-shift assay); format: biochemical; parameters: Kinase activity: unit not given here; details: for Kinase activity: L858R, n=1-3
MTT cytotoxicity assay [3] = format: cell-based; details: human, A549 cells, EGFR wild-type, n=3
Protocol: The cytotoxicity of the tested compounds against selected cell lines was measured by 3-(4,5-dimethylthiazol-2-yl)-2,5-diphenl tetrazolium bromide (MTT) assay. Briefly, cells (3000 per well) were plated in 96-well plate for 24 h and 100 µL of medium with di fferent concentrations of the tested compounds was added to each well for 48 h. Then 20 μL of MTT (5 mg/mL, Sigma-Aldrich) was added and incubate at 37 ℃ for 4 h, resulting the formation of the formazan crystal. The formed formazan crystal was dissolved with 150 μL of DMSO after removing the medium. The absorbance of each well was measured at 570 nm wavelength. The inhibition rate was calculated by the formula: (OD control group - OD treated group)/OD control group ×100%. The experiments were repeated at least three times. The IC50 values were determined by plotting a log (inhibitor) vs. normalized response (Variable slope) dose-response curve generated using GraphPad Prism […]
Immunohistochemistry staining
The obtained tumor tissues were sectioned into about 3 µm thickness layers. The general protocol of immunohistochemistry (IHC) was applied for the experiment. Firstly, the tissue slices were deparaffinized in xylene before immersion in 100% ethanol, followed by antigen repair. […]

MTT cytotoxicity assay [4] = format: cell-based; details: human, HeLa cells, EGFR wild-type, n=3
H1975 cells = assay: MTT cytotoxicity assay; format: cell-based; details: Homo sapiens, NCI-H1975; EGFR L858R/T790M, 48 h, n=3
[5] = test system: tumor tissues from NSCLC patients; assay: HX103-based multicolor FACS, surgical tumor tissues; format: cell-based, human
Protocol: The obtained tissues were dissociated into single-cell suspension using a standard protocol of primary cell isolation. Briefly, the obtained fresh tissue was placed in a petri dish on ice and cut into small pieces of ~2 mm. […] Subsequently, the digested sample was filtered through 70-μm and 40-μm cell strainer (Falcon), respectively, followed by the wash with serum-free medium (DMEM). The tumor cell pellet was then obtained by centrifugation at 500×g for 5 min at 4 °C for the removal of the supernatant. Then, the cell pellet was resuspended in serum-free medium and 1 mL of red blood cell lysis buffer was added and incubated for 5 min to remove the erythrocyte. The cells were pelleted and resuspended in a serum-free medium and ready for FACS analysis[67],[68]. […]
Gibco), and digested for 30 min at 37 ℃ under gentle agitation. […] The cells were pelleted and resuspended in serum-free medium and ready for FACS analysis 2, 3. […]
The co-staining was performed for 30 min at 37 °C, then the cells were pelleted (2000 g, 3 min) and washed with PBS buffer and PBS (containing 1% BSA) (2 times). The cells were pelleted (2000 g, 3 min) and resuspended in PBS (containing 1% BSA) and ready for analysis with a FACSVerseTM flow cytometer (BD Biosciences, LSRFortessa) (the lasers used for this study: 405 nm, 488 nm and 647 nm). […]

BSA = BSA (Bos taurus, UniProt P02769); assay: Fluorescence spectra of HX103 with BSA (Fig. 2c); format: binding
Sequence of BSA (P02769 25-607): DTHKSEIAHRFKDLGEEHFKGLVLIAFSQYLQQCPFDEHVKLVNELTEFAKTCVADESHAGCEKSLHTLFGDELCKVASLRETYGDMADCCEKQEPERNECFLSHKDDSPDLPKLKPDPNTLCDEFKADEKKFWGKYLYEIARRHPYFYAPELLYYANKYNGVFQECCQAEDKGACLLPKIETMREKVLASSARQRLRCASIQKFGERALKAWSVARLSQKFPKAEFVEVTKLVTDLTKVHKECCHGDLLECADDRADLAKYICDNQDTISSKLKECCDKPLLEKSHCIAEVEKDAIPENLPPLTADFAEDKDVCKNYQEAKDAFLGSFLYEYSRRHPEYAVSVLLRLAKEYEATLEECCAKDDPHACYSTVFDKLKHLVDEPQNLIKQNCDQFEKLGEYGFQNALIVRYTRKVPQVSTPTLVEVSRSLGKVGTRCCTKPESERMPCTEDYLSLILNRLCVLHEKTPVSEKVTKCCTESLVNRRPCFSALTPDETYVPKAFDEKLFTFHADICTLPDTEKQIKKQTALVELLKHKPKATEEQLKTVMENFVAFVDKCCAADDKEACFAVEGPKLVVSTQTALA

HCC827 cells = assay: FACS assay in cultured cells; details: for HX103 dose-dependent signal (Supplementary Fig. 18): 20 µM = 100
Protocol: Briefly, the cultured cells were seeded on the petri dish and counted using Count star BioMed automated cell counter. Around 10^6 live-cells were collected and were pelleted (2000×g, 3 min), followed by washing with PBS (2x). Cells were then resuspended in PBS buffer containing 0.1% BSA (1 × 10^6 cells/mL). […] The cell suspension was resuspended in PBS and analyzed with a FACSVerse^TM flow cytometer (BD Biosciences, LSRFortessa). About 10,000 events per tube were analyzed and the mean fluorescence intensity was detected and analyzed.
(§1) For the FACS assay with EGFR antibody, around 10^6 live-cells were collected and washed with PBS (2x). The cells were fixed by 400 µL 4% paraformaldehyde for 15 min at room temperature, followed by permeabilization with 0.1% Triton X-100 for 10 min and blocking with 5% BSA for 30 min. […] The cells were then washed with 0.5% BSA/PBS (3x) and resuspended in 400 µL of 0.1% BSA/PBS. […] The resuspended cell suspension was then analyzed on a FACSVerseTM flow cytometer (BD Biosciences, LSRFortessa). Nonspecific fluorescence binding was omitted by Rabbit mAb IgG isotype control (#3900, CST, 1:100) and the corresponding mean fluorescence was subtracted from the signal measured with each primary antibody. About 10,000 events per tube were analyzed and the mean fluorescence intensity was detected and analyzed.
(§2) Subsequently, the treated cells were incubated for 30 min at 37 °C, followed by washing with PBS buffer three times. […] Finally, the co-stained cells were washed with 0.5% BSA/PBS for three times and resuspended in 400 µL of 0.1% BSA/PBS. The obtained cell suspension was ready for analysis. Nonspecific fluorescence binding was omitted by Rabbit mAb IgG isotype control (#3900, CST, 1:100) as described above.
(§3) Nonspecific fluorescence binding was omitted by Rabbit mAb IgG isotype control (#3900, CST, 1:100). […] After incubation for another 30 min at room temperature, the co-stained cells were washed with 0.5% BSA/PBS for three times and resuspended in 400 µL of 0.1% BSA/PBS. The obtained cell suspension was ready for analysis. Nonspecific fluorescence binding was omitted by Rabbit mAb IgG isotype control (#3900, CST, 1:100) as described above.
(§4) The cells were seeded on the petri dish and cultured at the normal condition with 10% FBS, and that was changed to serum-free condition for 24 h when the cells proliferated at ~80% confluence. […] Nonspecific fluorescence binding was omitted by Rabbit mAb IgG isotype control (#3900, CST, 1:100) as described above.

MCF-7 cells = assay: FACS assay in cultured cells
Protocol: The FACS assay was performed according to the reported literatures[67],[68]. Briefly, the cultured cells were seeded on the petri dish and counted using Count star BioMed automated cell counter. Around 10^6 live-cells were collected and were pelleted (2000×g, 3 min), followed by washing with PBS (2x). Cells were then resuspended in PBS buffer containing 0.1% BSA (1 × 10^6 cells/mL). […] The cell suspension was resuspended in PBS and analyzed with a FACSVerse^TM flow cytometer (BD Biosciences, LSRFortessa). About 10,000 events per tube were analyzed and the mean fluorescence intensity was detected and analyzed.
as §1, §2, §3, §4

[6] = HX103 5 µM, 30 min, replicates n=1-3

COc1cc2c(Nc3ccc(F)c(Cl)c3)ncnc2cc1OCCCNc1ccc(S(=O)(=O)N(C)C)c2nonc12 [HX103]
Fluorescence intensity, L858R (EGFR L858R [1]; wavelength 666 nm): 4655.85
Fluorescence intensity, L858R (EGFR L858R [1]; wavelength 669 nm): 4299.18
Fluorescence intensity, L858R (EGFR L858R [1]; wavelength 671 nm): 3977.08
Fluorescence intensity, L858R (EGFR L858R [1]; wavelength 673 nm): 3702.64
Fluorescence intensity, L858R (EGFR L858R [1]; wavelength 676 nm): 3456.05
Fluorescence intensity, L858R (EGFR L858R [1]; wavelength 678 nm): 3215.71
Fluorescence intensity, L858R (EGFR L858R [1]; wavelength 681 nm): 2960.24
Fluorescence intensity, L858R (EGFR L858R [1]; wavelength 683 nm): 2683.28
Fluorescence intensity, L858R (EGFR L858R [1]; wavelength 686 nm): 2403.9
Fluorescence intensity, L858R (EGFR L858R [1]; wavelength 688 nm): 2143.64
Fluorescence intensity, L858R (EGFR L858R [1]; wavelength 690 nm): 1924.01
Fluorescence intensity, L858R (EGFR L858R [1]; wavelength 693 nm): 1757.52
Fluorescence intensity, L858R (EGFR L858R [1]; wavelength 695 nm): 1633.62
Fluorescence intensity, L858R (EGFR L858R [1]; wavelength 698 nm): 1538.11
Fluorescence intensity, L858R (EGFR L858R [1]; wavelength 700 nm): 1456.78
Fluorescence intensity at 570 nm (EGFR L858R [1]; Fig. 2d, HX103 with EGFR L858R, n=1-3): 94.4744 and 115.569 and 99.2784
fluorescence turn-on response (EGFR L858R [1]; HX103 5 µM in PBS buffer (0.1% DMSO), 570 nm): high fluorescence
Kd (EGFR L858R [1]; HX103 5 µM, EGFR 0 to 6 µM in PBS, one-site specific binding model, read-out: apparent binding affinity (Kd)): 0.8 ± 0.3 µM
Fluorescence response of HX103 to EGFR L858R (EGFR L858R [1]; EGFR 1 µM, n=1-3): 6.4875 and 6.559 and 3.424
Fluorescence response of HX103 to EGFR L858R (EGFR L858R [1]; EGFR 2 µM, n=1-3): 8.6 and 6.836 and 4.376
Fluorescence response of HX103 to EGFR L858R (EGFR L858R [1]; EGFR 5 µM, n=1-3): 8.998 and 10.1242 and 7.156
Fluorescence response of HX103 to EGFR L858R (EGFR L858R [1]; EGFR 6 µM, n=1-3, 0 at EGFR 0): 9.745 and 11.2537 and 8.24
Kinase activity (EGFR L858R [2]; Log [HX103 (M)] -5.5): 1.026 and 1.162 and 1.004
Kinase activity (EGFR L858R [2]; Log [HX103 (M)] -6): 0.499 and 0.9509 and 0.7157
Kinase activity (EGFR L858R [2]; Log [HX103 (M)] -7): 0.6308 and 0.9321 and 0.7802
Kinase activity (EGFR L858R [2]; Log [HX103 (M)] -7.5): 4.698 and 2.842 and 4.52
Kinase activity (EGFR L858R [2]; Log [HX103 (M)] -8): 12.69 and 17.65 and 16.97
Kinase activity (EGFR L858R [2]; Log [HX103 (M)] -8.5): 28.21 and 40.93 and 37.97
Kinase activity (EGFR L858R [2]; Log [HX103 (M)] -9): 37.52 and 69.85 and 65.69
IC50 (EGFR L858R [2]; n = 3): 0.0015 µM
IC50 at 48 h (MTT cytotoxicity assay [3]): 18 µM
IC50 at 48 h (MTT cytotoxicity assay [4]): > 100 µM
IC50 (H1975 cells): 45 µM
mean % value of HX103(+), EGFR 19del tumors ([5]; n = 4): 40.6±8.2%
mean % value of HX103(+), EGFR L858R tumors ([5]; n = 8): 65.3±10.9%
Fluorescence intensity, BSA (BSA; wavelength 666 nm): 1883.79
Fluorescence intensity, BSA (BSA; wavelength 669 nm): 1770.88
Fluorescence intensity, BSA (BSA; wavelength 671 nm): 1700.55
Fluorescence intensity, BSA (BSA; wavelength 673 nm): 1676.53
Fluorescence intensity, BSA (BSA; wavelength 676 nm): 1671.89
Fluorescence intensity, BSA (BSA; wavelength 678 nm): 1658.01
Fluorescence intensity, BSA (BSA; wavelength 681 nm): 1606.53
Fluorescence intensity, BSA (BSA; wavelength 683 nm): 1507.19
Fluorescence intensity, BSA (BSA; wavelength 686 nm): 1380.4
Fluorescence intensity, BSA (BSA; wavelength 688 nm): 1249.52
Fluorescence intensity, BSA (BSA; wavelength 690 nm): 1137.89
Fluorescence intensity, BSA (BSA; wavelength 693 nm): 1060.59
Fluorescence intensity, BSA (BSA; wavelength 695 nm): 1011.56
Fluorescence intensity, BSA (BSA; wavelength 698 nm): 981.361
Fluorescence intensity, BSA (BSA; wavelength 700 nm): 960.577
EGFR(+) HX103 (+) (%) AVE (HCC827 cells; HCC827, AVE of n=3): 80.23%
HX103 (+) (%) AVE (HCC827 cells; HCC827, AVE of n=3): 86.6667%
HX103 dose-dependent signal (Supplementary Fig. 18) (HCC827 cells; HCC827, HX103 0.01 µM): 0.7326 and 0.7683 and 0.9746
HX103 dose-dependent signal (Supplementary Fig. 18) (HCC827 cells; HCC827, HX103 0.04 µM): 2.846 and 2.806 and 2.831
HX103 dose-dependent signal (Supplementary Fig. 18) (HCC827 cells; HCC827, HX103 0.37 µM): 22.4134 and 22.8581 and 22.7877
HX103 dose-dependent signal (Supplementary Fig. 18) (HCC827 cells; HCC827, HX103 1.1 µM): 38.2787 and 42.4364 and 41.8565
HX103 dose-dependent signal (Supplementary Fig. 18) (HCC827 cells; HCC827, HX103 3.3 µM): 54.3583 and 44.1499 and 45.6521
HX103 dose-dependent signal (Supplementary Fig. 18) (HCC827 cells; HCC827, HX103 10 µM): 74.1678 and 84.8664 and 79.5169
HX103 dose-dependent signal (Supplementary Fig. 18) (HCC827 cells; HCC827, HX103 15 µM): 88.3889 and 68.5257 and 78.4542
HX103 dose-dependent signal (Supplementary Fig. 18) (HCC827 cells; HCC827, HX103 20 µM): 100
HX103 signal (Supplementary Fig. 7) (HCC827 cells; HCC827, HX103 alone or with Gefitinib, replicates n=1-3): 106.679 and 93.3209 and 100
EGFR(+) HX103 (+) (%) (HCC827 cells; HCC827, replicates n=1-3): 76.09% and 81.73% and 82.87%
HX103(+) (%) (HCC827 cells; HCC827, replicates n=1-3): 99.17% and 83.21% and 77.62%
normalized MFI of HX103 labeling (HCC827 cells; [6]): 92.4893% and 105.794% and 84.1202%
EGFR(+) HX103 (+) (%) (HCC827 cells; HX103 5 µM, replicates n=1-3): 81.73% and 82.87% and 76.09%
normalized MFI of HX103 labeling (MCF-7 cells; [6]): 25.1073% and 53.6481% and 30.8069%
EGFR(+) HX103 (+) (%) (MCF-7 cells; HX103 5 µM, replicates n=1-3): 0.04% and 0.02% and 0.09%
EGFR(+) HX103 (+) (%) AVE (MCF-7 cells; MCF-7, AVE of n=3): 0.05%
HX103 (+) (%) AVE (MCF-7 cells; MCF-7, AVE of n=3): 0.5297%
EGFR(+) HX103 (+) (%) (MCF-7 cells; MCF-7, replicates n=1-3): 0.09% and 0.04% and 0.02%
HX103(+) (%) (MCF-7 cells; MCF-7, replicates n=1-3): -0.051% and 1.21% and 0.43%

— article PMC9663578, “A fluorogenic probe for predicting treatment response in non-small cell lung cancer with EGFR-activating mutations” (Nature Communications, 2022)
